The subject of series [1] is APTK organoid xenograft tumours. As to the kind of experiment: APTK organoid model with depletion of CD8+ cytotoxic T cells by anti-CD8. The format is in vivo, mouse. The following applies: UA 200 mpk diet plus anti-CD8 150 μg i.p. every second day, FIG. 7. How it is done: For this model, C57/BL6 were maintained on a Urolithin A 200 mpk or control diet. One week after starting the dietary intervention, mice were transplanted subcutaneously with APTK organoids as described above. Starting at day 3, these mice received 5 intraperitoneal injections (150 μg every second day) of an anti-CD8 or isotype control antibody (BioXCell) to deplete CD8+ cytotoxic T cells. As in the previous experiments, tumour growth is measured by calliper measurements.

A short description of series [2]: Pharmacokinetic profile of orally administered urolithin A. Conditions: 250 mg to 1000 mg urolithin A compared with 2000 mg. The format is in vivo.
Series [3] relates to APTK organoid xenograft tumours. As to the kind of experiment: APTK organoid model combined with anti-PD1 injections. The following applies: Urolithin A 200 mpk with isotype control antibody vs anti-PD1 200 μg i.p. every third day, FIG. 8. Type of series: in vivo, mouse. The method, then:
• C57BL/6 mice are transplanted subcutaneously with APTK organoids as described in Example 2 and either, fed with a Urolithin A 200 mpk or control diet (initiated one week prior to subcutaneous injection) and receive 4 intraperitoneal injections (200 μg every third day, starting day 5) of a blocking anti-PD1 or isotype control antibody (BioXCell).

The test system of series [4] is AOM model of colorectal cancer. Briefly: AOM model of colorectal cancer: lesion count/size (H&E) and anti-CD3 immunostaining of colonic mucosa. The format is in vivo, mouse. How it is done: • A model of sporadic tumourigenesis can be obtained applying repetitively azoxymethane (AOM), without dextran sodium sulphate, to female wild-type FVB mice. In particular, tumours are induced by six weekly intraperitoneal injections of AOM (10 mg/kg) in wild type animals. Mice are analysed 18-24 weeks later. Urolithin A is applied in the diet at a dose of 50 or 200 mg/kg mouse a day (mpk), or control lab diet one week before starting the 6 injections of AOM, during the 6 weeks of injections with AOM, and for approximately 20 weeks following these injections, for a total of ca. 27-30 weeks. At the end of the treatment period, mice are euthanized by cervical dislocation for the collection of intestinal tissues.

The subject of series [5] is APTK organoid xenograft tumours. As to the kind of experiment: APTK organoid subcutaneous xenograft tumour model: tumour volume, CD3 and cleaved caspase 3 staining. The format is in vivo, mouse. The text has this:
• Colorectal cancer organoids (from here on also referred to as APTK organoids) are generated by the selective introduction of tumourigenic mutation in the gene APC (A), p53 (P), Tgf-beta1 (T) and K-ras (K). Since APTK organoids have been developed on a C57/BL6 genetic background, they can be transplanted to generate tumours in wild type BL6 mice with an intact immune system that allows to study the immune response towards the developing tumour. One week prior to subcutaneous transplantation, the mice are fed either a Urolithin A-containing or control diet. Tumour growth is assessed by calliper measurements. The resulting tumours are analysed histologically.

The subject of series [6] is advanced, previously untreated non-small cell lung cancer. Conditions: patients with advanced; cited from earlier work.
Series [7] has as its system previously treated, unresectable melanoma. Conditions: patients with previously treated; cited from earlier work.

For `O=c1oc2cc(O)ccc2c2ccc(O)cc12` [Urolithin A], in series [1], the “anti-tumoural effect (tumour volume) when CD8+ cytotoxic T cells are abrogated” value is on record as “anti-tumoural effect of UA is lost”. Further, the pharmacokinetic profile entry in series [2] was “surprisingly good pharmacokinetic profile”. Also, in series [3], the “tumour growth, Urolithin A alone versus anti-PD1 antibody treatment” value is “no difference was observed”. For the same molecule, the number of lesions result in series [4] (UA 200 mpk in diet vs control diet, H&E of colonic tissue, FIG. 2) is “significantly decreases the number of lesions”. Also, the “CD3 positive cells in colonic mucosa” value in series [4] (UA 200 mpk vs control, anti-CD3 immunostaining, FIG. 3) is reported as “tend to have more CD3 positive cells”. For the same molecule, in series [4] (UA treated animals vs control diet, FIG. 2), the size of lesions result was “appear to be of smaller size”. In addition, the tumour volume entry in series [5] (UA 200 mpk diet vs control diet, calliper, FIG. 4) is given as “significant lower tumour volume”. For the same molecule, in series [5] (UA 200 mpk vs control, FIG. 5), the “CD3 positive cells at the invasive margin” value is given as “less CD3 positive cells at the invasive margin” and the “CD3 positive cells inside the core of the tumours” value is “more CD3 positive cells inside the core of the tumours”. The “cleaved Casp3 staining (marker of apoptosis)” value in series [5] (UA 200 mpk vs control, FIG. 6) is on record as “significant increase of cleaved Casp3 staining”.

For nivolumab, the results for the response rate in series [6] and in series [7] were 30% and 31%, respectively. In addition, in series [7], the progression free survival is given as 9.7 months.

Regarding “pembrolizumab: humanized monoclonal IgG4 antibody directed against human cell surface receptor PD-1”, the response rate in series [6] is listed as 26%. In series [7], the progression free survival is listed as 50 weeks and the response rate is reported as 34%.

(Values after patent US20210346342A1, “COMBINATION OF AN UROLITHIN WITH AN IMMUNOTHERAPY TREATMENT” (Amazentis SA, priority 2019, published 2021).)
